# Measured values from patent US9657062B2, “Ghrelin analogues” (Zealand Pharma A/S, priority 2012, dated 2017).
# *1 amine or outer side, *2 acyl side, *3 side chain or, on linkers, in order; H or OH if unused. Where a SMILES comes first, the peptide text is derived from it. [ ]: non-standard residue; d: D form. The star is where a group is joined. Cmp = 4-carboxymethyl-piperidine, O=C(CC1CCN([*:1])CC1)[*:2]; Octanoyl = CCCCCCCC(=O)*; Dap = NC[C@H](N)C(=O)O; Octyl = CCCCCCCC*
# Tests used:
# [1] = system: normal chow-fed C57BL/6J male mice; experiment: Effect on food intake in normal mice (HM-2 automated monitoring); assay type: in vivo, mouse; conditions: for Accumulated FI at 6h: 300 nmol/kg s.c. once, light phase 0-6 h, modified protocol (food access re-opened 2 h after dosing); for Effects on FI during the dark period: modified protocol, 0-24 h monitoring (FIG. 2B)
# Protocol: Normal chow-fed C57BL/6J male mice were used. The mice were kept in an automated food- and water-intake monitoring system (HM-2) which allows automated on-line measurements of accumulated food intake (FI) and other parameters. Food intake was monitored by the HM-2 system up to 24 h after dosing. The mice were kept 6 per cage, and each dosing group consisted of 6 animals.
# In the initial experimental set-up with ghrelin as test compound, animals were allowed free access to food directly after treatment, and the resulting data for food intake are shown in FIG. 1A herein (vide infra).
# In order to further investigate the “duration of action” of ghrelin and the other test compounds a new protocol was defined. In the modified protocol the gate to the food chambers was closed prior to dosing with vehicle or test compound and was re-opened 2 hours thereafter. The resulting data for food intake following dosing with ghrelin or vehicle are summarized in FIG. 1B (vide infra), while the corresponding data for food intake following dosing with each of the of the other four test compounds. (Compound 16, 22, 23 or 43 of the invention) or with vehicle are summarized in FIG. 2A (data for monitoring up to 6 hours after dosing) and FIG. 2B (data for monitoring up to 24 hours after dosing).
# [2] = target: human growth hormone secretagogue receptor type 1a (human, UniProt Q92847 1-366); experiment: cell-based or functional assay
# Sequence of human growth hormone secretagogue receptor type 1a (Q92847 whole entry): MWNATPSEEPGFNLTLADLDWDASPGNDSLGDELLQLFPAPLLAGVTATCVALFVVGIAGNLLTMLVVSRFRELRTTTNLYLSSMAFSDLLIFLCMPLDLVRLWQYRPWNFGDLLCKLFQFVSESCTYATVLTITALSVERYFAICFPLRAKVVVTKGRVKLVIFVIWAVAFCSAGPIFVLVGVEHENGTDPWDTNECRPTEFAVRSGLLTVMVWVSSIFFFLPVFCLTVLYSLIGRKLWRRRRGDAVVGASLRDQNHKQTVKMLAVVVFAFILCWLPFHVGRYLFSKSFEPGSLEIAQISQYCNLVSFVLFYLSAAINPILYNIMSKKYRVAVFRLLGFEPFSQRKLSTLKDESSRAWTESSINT
molecule,measurement,setting,value
"CCCCCCCC(=O)OC[C@H](NC(=O)[C@H](CO)NC(=O)CN)C(=O)N[C@@H](Cc1ccccc1)C(=O)N[C@@H](CC(C)C)C(=O)N[C@@H](CO)C(=O)N1CCC[C@H]1C(=O)N[C@@H](CCC(=O)O)C(=O)N[C@@H](Cc1c[nH]cn1)C(=O)N[C@@H](CCC(N)=O)C(=O)N[C@@H](CCCNC(=N)N)C(=O)N[C@H](C(=O)N[C@@H](CCC(N)=O)C(=O)N[C@@H](CCC(N)=O)C(=O)N[C@@H](CCCNC(=N)N)C(=O)N[C@@H](CCCCN)C(=O)N[C@@H](CCC(=O)O)C(=O)N[C@@H](CO)C(=O)N[C@@H](CCCCN)C(=O)N[C@@H](CCCCN)C(=O)N1CCC[C@H]1C(=O)N1CCC[C@H]1C(=O)N[C@@H](C)C(=O)N[C@@H](CCCCN)C(=O)N[C@@H](CC(C)C)C(=O)N[C@@H](CCC(N)=O)C(=O)N1CCC[C@H]1C(=O)N[C@@H](CCCNC(=N)N)C(=O)O)C(C)C [Compound 1, reference compound]",Effect on food intake (FI),"[1]; 300 nmol/kg s.c., access to food delayed for 2 h after administration (FIG. 1B)",essentially lost
same,Food intake (FI) compared to PBS treated controls,"[1]; 300 nmol/kg s.c., free access to food immediately after dosing (FIG. 1A)",increased FI
CCCCCCCCCCCCCCCC(=O)NCCCC[C@H](NC(=O)[C@H](CO)NC(=O)[C@H](CCC(=O)O)NC(=O)[C@H](CCCCN)NC(=O)[C@H](CCCNC(=N)N)NC(=O)[C@H](CCC(N)=O)NC(=O)[C@H](CCC(N)=O)NC(=O)[C@@H](NC(=O)[C@H](CCCNC(=N)N)NC(=O)[C@H](CCC(N)=O)NC(=O)[C@H](Cc1c[nH]cn1)NC(=O)[C@H](CCC(=O)O)NC(=O)[C@@H]1CCCN1C(=O)[C@H](CO)NC(=O)[C@H](CC(C)C)NC(=O)[C@H](Cc1ccccc1)NC(=O)[C@H](COCCCCCCCC)NC(=O)[C@H](CO)NC(=O)[C@@H]1CCCN1)C(C)C)C(=O)N[C@@H](CCCCN)C(=O)N1CCC[C@H]1C(=O)N1CCC[C@H]1C(=O)N[C@@H](C)C(=O)N[C@@H](CCCCN)C(=O)N[C@@H](CC(C)C)C(=O)N[C@@H](CCC(N)=O)C(=O)N1CCC[C@H]1C(=O)N[C@@H](CCCNC(=N)N)C(=O)O [Compound 16],Accumulated FI at 6h,[1],0.65 ± 0.1 g
CCCCCCCC(=O)NC[C@H](NC(=O)[C@H](CO)NC(=O)[C@@H]1CCCN1)C(=O)N[C@@H](Cc1ccccc1)C(=O)N[C@@H](CC(C)C)C(=O)N[C@@H](CO)C(=O)N1CCC[C@H]1C(=O)N[C@@H](CCC(=O)O)C(=O)N[C@@H](Cc1c[nH]cn1)C(=O)N[C@@H](CCC(N)=O)C(=O)N[C@@H](CCCNC(=N)N)C(=O)N[C@H](C(=O)N[C@@H](CCC(N)=O)C(=O)N[C@@H](CCC(N)=O)C(=O)N[C@@H](CCCNC(=N)N)C(=O)N[C@@H](CCCCN)C(=O)N[C@@H](CCC(=O)O)C(=O)N[C@@H](CO)C(=O)N[C@@H](CCCCN)C(=O)N[C@@H](CCCCN)C(=O)N1CCC[C@H]1C(=O)N1CCC[C@H]1C(=O)N[C@@H](C)C(=O)N[C@@H](CCCCN)C(=O)N[C@@H](CC(C)C)C(=O)N[C@@H](CCC(N)=O)C(=O)N1CCC[C@H]1C(=O)N[C@@H](CCCNC(=N)N)C(N)=O)C(C)C [Compound 22],Accumulated FI at 6h,[1],1.87 ± 0.23 g
same,Effects on FI during the dark period,[1]; 300 nmol/kg s.c.,significant effects
CCCCCCCC(=O)NC[C@H](NC(=O)[C@H](CO)NC(=O)[C@@H]1CCCN1)C(=O)N[C@@H](Cc1ccccc1)C(=O)N[C@@H](CC(C)C)C(=O)N[C@@H](CO)C(=O)N1CCC[C@H]1C(=O)N[C@@H](CCC(=O)O)C(=O)N[C@@H](Cc1c[nH]cn1)C(=O)N[C@@H](CO)C(=O)N[C@@H](CCCNC(=N)N)C(=O)N[C@H](C(=O)N[C@@H](CO)C(=O)N[C@@H](CO)C(=O)N[C@@H](CCCNC(=N)N)C(=O)N[C@@H](CCCCN)C(=O)N[C@@H](CCC(=O)O)C(=O)N[C@@H](CO)C(=O)N[C@@H](CCCCN)C(=O)N[C@@H](CCCCN)C(=O)N1CCC[C@H]1C(=O)N1CCC[C@H]1C(=O)N[C@@H](C)C(=O)N[C@@H](CCCCN)C(=O)N[C@@H](CC(C)C)C(=O)N[C@@H](CO)C(=O)N1CCC[C@H]1C(=O)N[C@@H](CCCNC(=N)N)C(N)=O)C(C)C [Compound 23] (H-PS[Dap](Octanoyl)FLSPEHSRVSSRKESKKPPAKLSPR-NH2),Effects on FI in the 0-6 h light period,"[1]; 300 nmol/kg s.c., modified protocol (FIG. 2A)",moderate effects
same,Effects on FI during the dark period,[1]; 300 nmol/kg s.c.,significant effects
"CCCCCCCC(=O)NC[C@H](NC(=O)[C@H](CO)NC(=O)[C@@H]1CCCN1)C(=O)N[C@@H](Cc1ccccc1)C(=O)N[C@@H](CC(C)C)C(=O)N[C@@H](CO)C(=O)N1CCC[C@H]1C(=O)N[C@@H](Cc1ccc(O)cc1)C(N)=O [Compound 42, H-PS-Dap(N-octanoyl)-FLSPY-NH2] (H-PS[Dap](Octanoyl)FLSPY-NH2)",Accumulated FI at 6h,[1],0.2 ± 0.08 g
CCCCCCCCCCCCCCCC(=O)N[C@@H](CCC(=O)NCCCC[C@H](NC(=O)[C@H](CO)NC(=O)[C@H](CCC(=O)O)NC(=O)[C@H](CCCCN)NC(=O)[C@H](CCCNC(=N)N)NC(=O)[C@H](CCC(N)=O)NC(=O)[C@H](CCC(N)=O)NC(=O)[C@@H](NC(=O)[C@H](CCCNC(=N)N)NC(=O)[C@H](CCC(N)=O)NC(=O)[C@H](Cc1c[nH]cn1)NC(=O)[C@H](CCC(=O)O)NC(=O)[C@@H]1CCCN1C(=O)[C@H](CO)NC(=O)[C@H](CC(C)C)NC(=O)[C@H](Cc1ccccc1)NC(=O)[C@H](COCCCCCCCC)NC(=O)[C@H](CO)NC(=O)[C@@H]1CCCN1)C(C)C)C(=O)N[C@@H](CCCCN)C(=O)N1CCC[C@H]1C(=O)N1CCC[C@H]1C(=O)N[C@@H](C)C(=O)N[C@@H](CCCCN)C(=O)N[C@@H](CC(C)C)C(=O)N[C@@H](CCC(N)=O)C(=O)N1CCC[C@H]1C(=O)N[C@@H](CCCNC(=N)N)C(N)=O)C(=O)O [Compound 43],Accumulated FI at 6h,[1],0.37 ± 0.14 g
CCCCCCCCOC[C@H](NC(=O)[C@H](CO)NC(=O)[C@@H]1CCCN1)C(=O)N[C@@H](Cc1ccccc1)C(=O)N[C@@H](CC(C)C)C(=O)N[C@@H](CO)C(=O)N1CCC[C@H]1C(=O)N[C@@H](CCC(=O)O)C(=O)N[C@@H](Cc1c[nH]cn1)C(=O)N[C@@H](CO)C(=O)N[C@@H](CCCNC(=N)N)C(=O)N[C@H](C(=O)N[C@@H](CO)C(=O)N[C@@H](CO)C(=O)N[C@@H](CCCNC(=N)N)C(=O)N[C@@H](CCCCN)C(=O)N[C@@H](CCC(=O)O)C(=O)N[C@@H](CO)C(=O)N[C@@H](CO)C(=O)N[C@@H](CCCCN)C(=O)N1CCC[C@H]1C(=O)N1CCC[C@H]1C(=O)N[C@@H](C)C(=O)N[C@@H](CCCCN)C(=O)N[C@@H](CC(C)C)C(=O)N[C@@H](CO)C(=O)N1CCC[C@H]1C(=O)N[C@@H](CCCNC(=N)N)C(N)=O)C(C)C [Compound 45] (H-PSS(Octyl)FLSPEHSRVSSRKESSKPPAKLSPR-NH2),Accumulated FI at 6h,[1],0.38 ± 0.13 g
CCCCCCCCOC[C@H](NC(=O)[C@H](CO)NC(=O)[C@@H]1CCCN1)C(=O)N[C@@H](Cc1ccccc1)C(=O)N[C@@H](CC(C)C)C(=O)N[C@@H](CO)C(=O)N1CCC[C@H]1C(=O)N[C@@H](CCC(=O)O)C(=O)N[C@@H](Cc1c[nH]cn1)C(=O)N[C@@H](CO)C(=O)N[C@@H](CCCNC(=N)N)C(=O)N[C@H](C(=O)N[C@@H](CO)C(=O)N[C@@H](CO)C(=O)N[C@@H](CCCNC(=N)N)C(=O)N[C@@H](CCCCN)C(=O)N[C@@H](CCC(=O)O)C(=O)N[C@@H](CO)C(=O)N[C@@H](CCCCN)C(=O)N[C@@H](CO)C(=O)N1CCC[C@H]1C(=O)N1CCC[C@H]1C(=O)N[C@@H](C)C(=O)N[C@@H](CCCCN)C(=O)N[C@@H](CC(C)C)C(=O)N[C@@H](CO)C(=O)N1CCC[C@H]1C(=O)N[C@@H](CCCNC(=N)N)C(N)=O)C(C)C [Compound 46] (H-PSS(Octyl)FLSPEHSRVSSRKESKSPPAKLSPR-NH2),Accumulated FI at 6h,[1],1.68 ± 0.2 g
H-[Cmp]S(Octanoyl)FLSPEHQRVQQRKESKKPPAKLQPR-OH (SMILES CCCCCCCC(=O)OC[C@H](NC(=O)CC1CCNCC1)C(=O)N[C@@H](Cc1ccccc1)C(=O)N[C@@H](CC(C)C)C(=O)N[C@@H](CO)C(=O)N1CCC[C@H]1C(=O)N[C@@H](CCC(=O)O)C(=O)N[C@@H](Cc1c[nH]cn1)C(=O)N[C@@H](CCC(N)=O)C(=O)N[C@@H](CCCNC(=N)N)C(=O)N[C@H](C(=O)N[C@@H](CCC(N)=O)C(=O)N[C@@H](CCC(N)=O)C(=O)N[C@@H](CCCNC(=N)N)C(=O)N[C@@H](CCCCN)C(=O)N[C@@H](CCC(=O)O)C(=O)N[C@@H](CO)C(=O)N[C@@H](CCCCN)C(=O)N[C@@H](CCCCN)C(=O)N1CCC[C@H]1C(=O)N1CCC[C@H]1C(=O)N[C@@H](C)C(=O)N[C@@H](CCCCN)C(=O)N[C@@H](CC(C)C)C(=O)N[C@@H](CCC(N)=O)C(=O)N1CCC[C@H]1C(=O)N[C@@H](CCCNC(=N)N)C(=O)O)C(C)C) [H-Cmp-S(O-octanoyl)-FLSPEHQRVQQRKESKKPPAKLQPR-OH],EC50 (nM); Ca2+ induction in HEK293 cells stably expressing the human ghrelin receptor,[2],0.558 nM
H-SSS(Octanoyl)FLSPEHQRVQQRKESKKPPAKLQPR-OH (SMILES CCCCCCCC(=O)OC[C@H](NC(=O)[C@H](CO)NC(=O)[C@@H](N)CO)C(=O)N[C@@H](Cc1ccccc1)C(=O)N[C@@H](CC(C)C)C(=O)N[C@@H](CO)C(=O)N1CCC[C@H]1C(=O)N[C@@H](CCC(=O)O)C(=O)N[C@@H](Cc1c[nH]cn1)C(=O)N[C@@H](CCC(N)=O)C(=O)N[C@@H](CCCNC(=N)N)C(=O)N[C@H](C(=O)N[C@@H](CCC(N)=O)C(=O)N[C@@H](CCC(N)=O)C(=O)N[C@@H](CCCNC(=N)N)C(=O)N[C@@H](CCCCN)C(=O)N[C@@H](CCC(=O)O)C(=O)N[C@@H](CO)C(=O)N[C@@H](CCCCN)C(=O)N[C@@H](CCCCN)C(=O)N1CCC[C@H]1C(=O)N1CCC[C@H]1C(=O)N[C@@H](C)C(=O)N[C@@H](CCCCN)C(=O)N[C@@H](CC(C)C)C(=O)N[C@@H](CCC(N)=O)C(=O)N1CCC[C@H]1C(=O)N[C@@H](CCCNC(=N)N)C(=O)O)C(C)C) [H-SS-S(O-octanoyl)-FLSPEHQRVQQRKESKKPPAKLQPR-OH],EC50 (nM); Ca2+ induction in HEK293 cells stably expressing the human ghrelin receptor,[2],0.385 nM
